For assay [1], the system named is Enterococcus hirae. Briefly: Minimal inhibitory concentration against gram positive Enterococcus hirae 29212 strain (Range is 1-3 uM). The assay is classed as functional.
For assay [2], the system named is Streptococcus pyogenes. The experiment in a line: Minimal inhibitory concentration against gram positive Streptococcus pyogenes 49399 strain (Range is 3-6 uM). Type of assay: functional.
Assay [3] relates to Pseudomonas aeruginosa. The experiment in a line: Minimal inhibitory concentration against gram negative Pseudomonas aeruginosa 25416 strain (Range is 12-25 uM). Type of assay: functional.
Assay [4] deals with Escherichia coli. The experiment in a line: Minimal inhibitory concentration against gram negative Escherichia coli 25922 strain (Range is 12-25 uM). Conditions: ATCC25922. The assay is classed as functional.
Assay [5] concerns Staphylococcus aureus. The experiment in a line: Minimal inhibitory concentration against Staphylococcus aureus (Range is 6-12 uM). The assay is classed as functional.
Assay [6] concerns Staphylococcus aureus. Briefly: Minimal inhibitory concentration against gram positive Staphylococcus aureus 13709 strain (Range is 6-12 uM). The assay is classed as functional.
Assay [7] relates to Bacteria. The experiment in a line: Inhibitory activity against bacteria in the transcription/translation assay. Type of assay: functional, organism-based.
Assay [8] has as its system Escherichia coli. The experiment in a line: Minimal inhibitory concentration against Escherichia coli (Range is 12-25 uM). The assay is classed as functional.
Assay [9] deals with Klebsiella pneumoniae. The experiment in a line: Minimal inhibitory concentration against gram negative Klebsiella pneumoniae 13383 strain (Range is 6-12 uM). Type of assay: functional.
For assay [10], the system named is Streptococcus pneumoniae. Briefly: Minimal inhibitory concentration against gram positive Streptococcus pneumoniae 6303 strain (Range is 6-12 uM). The assay is classed as functional.
In assay [11] the test system is Staphylococcus aureus. Briefly: In vitro minimal inhibitory concentration against Staphylococcus aureus. The assay is classed as functional.
Assay [12] has as its system Escherichia coli. Briefly: Minimal inhibitory concentration against Escherichia coli. The assay is classed as functional.
The subject of assay [13] is Staphylococcus aureus. The experiment in a line: Minimal inhibitory concentration against Staphylococcus aureus (Range is 25-50 uM). Type of assay: functional.
In assay [14] the test system is Escherichia coli. The experiment in a line: Minimal inhibitory concentration against Escherichia coli (Range is 25-50 uM). Type of assay: functional.
In assay [15] the test system is Pseudomonas aeruginosa. The experiment in a line: Minimal inhibitory concentration against gram negative Pseudomonas aeruginosa 25416 strain (Range is 50-100 uM). Type of assay: functional.
Assay [16] deals with Escherichia coli. The experiment in a line: Minimal inhibitory concentration against gram negative Escherichia coli 25922 strain. Type of assay: functional. Particulars: ATCC25922.
Assay [17] has as its system Enterococcus hirae. Briefly: Minimal inhibitory concentration against gram positive Enterococcus hirae 29212 strain (Range is 3-6 uM). The assay is classed as functional.
In assay [18] the test system is Streptococcus pneumoniae. Briefly: Minimal inhibitory concentration against gram positive Streptococcus pneumoniae 6303 strain (Range is 12-25 uM). The assay is classed as functional.
For assay [19], the system named is Staphylococcus aureus. Briefly: Minimal inhibitory concentration against gram positive Staphylococcus aureus 13709 strain (Range is 3-6 uM). Type of assay: functional.
Assay [20] concerns Proteus vulgaris. The experiment in a line: Minimal inhibitory concentration against gram negative Proteus vulgaris 8427 strain (Range is 50-100 uM). Type of assay: functional.
Assay [21] relates to Staphylococcus aureus. Briefly: Minimal inhibitory concentration against Staphylococcus aureus (Range is 3-6 uM). The assay is classed as functional.
Assay [22] deals with Streptococcus pyogenes. Briefly: Minimal inhibitory concentration against gram positive Streptococcus pyogenes 49399 strain (Range is 6-12 uM). The assay is classed as functional.
Assay [23] concerns Staphylococcus aureus. Briefly: Minimal inhibitory concentration against Staphylococcus aureus (Range is 50-100 uM). Type of assay: functional.
The subject of assay [24] is Staphylococcus aureus. The experiment in a line: Minimal inhibitory concentration against Staphylococcus aureus (Range is 12-25 uM). The assay is classed as functional.
For assay [25], the system named is Klebsiella pneumoniae. The experiment in a line: Minimal inhibitory concentration against gram negative Klebsiella pneumoniae 13383 strain (Range is 25-50 uM). Type of assay: functional.
The test system of assay [26] is Proteus vulgaris. Briefly: Minimal inhibitory concentration against gram negative Proteus vulgaris 8427 strain (Range is 25-50 uM). The assay is classed as functional.
The test system of assay [27] is Escherichia coli. The experiment in a line: Minimal inhibitory concentration against Escherichia coli (Range is 50-100 uM). The assay is classed as functional.

Converted amounts (≈) assume the structure as drawn. A value given as a limit tells only on which side of the number the result lay.

For `Clc1cc2nc(C3CCNCC3)n(CCCCCCn3c(C4CCNCC4)nc4cc(Cl)c(Cl)cc43)c2cc1Cl`, the minimal inhibitory concentration (MIC) (in general, the lowest concentration that inhibits growth of the organism) was 3 µM (≈ 1.87 µg/mL) in [1]; 6 µM (≈ 3.73 µg/mL) in assay [2]; 25 µM (≈ 15.6 µg/mL) in assay [3]; 25 µM (≈ 15.6 µg/mL) in assay [4]; 12 µM (≈ 7.47 µg/mL) in [5]; 12 µM (≈ 7.47 µg/mL) in [6]. Besides, the minimum inhibitory concentration (MIC) in assay [8] is 25 µM (≈ 15.6 µg/mL); in assay [9], 12 µM (≈ 7.47 µg/mL); in assay [10], 12 µM (≈ 7.47 µg/mL). In addition, the IC50 – broadly, the concentration that inhibits the measured activity by half – in [7] was > 100 µM.
For the compound `O=C(NCCCCCn1c(C2CCNCC2)nc2cc(Cl)c(Cl)cc21)c1ccccc1`, the MIC in assay [11] and in [12] was > 100 µM in each case.
Regarding `Clc1cc2nc(C3CCNCC3)n(CCCn3c(C4CCNCC4)nc4cc(Cl)c(Cl)cc43)c2cc1Cl`, the minimal inhibitory concentration (MIC) in assay [13] and in [14] was 50 µM (≈ 29 µg/mL) in each case.
Consider `CC(C)c1ccc2c(c1)CCC1C(C)(C/N=C(\S)NNC(=O)Cn3c(C4CCNCC4)nc4cc(Cl)c(Cl)cc43)CCC[C@]21C` (some centres not stated), for which the MIC in assay [13] and in assay [14] was 50 µM (≈ 33.5 µg/mL) throughout.
`O=C(Cn1c(C2CCNCC2)nc2cc(Cl)c(Cl)cc21)N/N=C/c1c[nH]c2ccc(OCc3ccccc3)cc12`: the MIC in assay [15] was 100 µM (≈ 57.6 µg/mL); in assay [16], > 100 µM; in assay [17], 6 µM (≈ 3.45 µg/mL); in [18], 25 µM (≈ 14.4 µg/mL); in assay [19], 6 µM (≈ 3.45 µg/mL); in [20] it was 100 µM (≈ 57.6 µg/mL). For the same compound, the MIC in [9] was 12 µM (≈ 6.91 µg/mL); in assay [12], > 100 µM; in assay [21], 6 µM (≈ 3.45 µg/mL); in [22], 12 µM (≈ 6.91 µg/mL). For the same compound, the IC50 in assay [7] was > 100 µM.
Regarding `O=C1c2ccccc2C(=O)N1CCCn1c(C2CCNCC2)nc2cc(Cl)c(Cl)cc21`, the minimum inhibitory concentration (MIC) in [11] and in assay [12] was > 100 µM each time.
Turning to `O=C(Cn1c(C2CCNCC2)nc2cc(Cl)c(Cl)cc21)NNC(=S)NCc1ccco1`, the figures for the minimal inhibitory concentration (MIC) in assay [12] and in assay [23] were > 100 µM and 100 µM (≈ 48.1 µg/mL), respectively.
For `O=C(Cn1c(C2CCNCC2)nc2cc(Cl)c(Cl)cc21)N/N=C/c1ccc(O)c(O)c1O`, the minimum inhibitory concentration (MIC) in [24] was 25 µM (≈ 12 µg/mL); in assay [12], > 100 µM.
On to `O=C(Cn1c(C2CCNCC2)nc2cc(Cl)c(Cl)cc21)NNC(=S)NCCCN1CCOCC1`, for which the minimal inhibitory concentration (MIC) in [11] and in [12] was > 100 µM in each case.
`O=C1CCC(=O)N1CCCCCn1c(C2CCNCC2)nc2cc(Cl)c(Cl)cc21`: the minimal inhibitory concentration (MIC) in [11] and in [12] was > 100 µM throughout.
`O=C(Cn1c(C2CCNCC2)nc2cc(Cl)c(Cl)cc21)N/N=C/c1ccccn1`: the MIC in assay [11] and in assay [12] was > 100 µM each time.
Consider `Clc1cc2nc(C3CCNCC3)n(CCCCCn3cnnc3)c2cc1Cl`, for which the MIC in assay [11] and in [12] was > 100 µM throughout.
On to `O=C(Cn1c(C2CCNCC2)nc2cc(Cl)c(Cl)cc21)N/N=C/c1ccncc1`, for which the minimal inhibitory concentration (MIC) in [11] and in assay [12] was > 100 µM in each case.
Consider `O=C(Cn1c(C2CCNCC2)nc2cc(Cl)c(Cl)cc21)N/N=C/c1cnn(-c2ccccc2)c1Cl`, for which the MIC in assay [15] was 100 µM (≈ 53.1 µg/mL); in assay [1], 3 µM (≈ 1.59 µg/mL); in assay [25] it was 50 µM (≈ 26.5 µg/mL); in assay [16] it was > 100 µM; in [5], 12 µM (≈ 6.37 µg/mL); in assay [6], 12 µM (≈ 6.37 µg/mL). Besides, the minimal inhibitory concentration (MIC) in assay [18] is 25 µM (≈ 13.3 µg/mL); in assay [26], 50 µM (≈ 26.5 µg/mL); in assay [12] it was > 100 µM; in assay [22] it was 12 µM (≈ 6.37 µg/mL). The IC50 in assay [7] is > 100 µM.
Consider `Clc1cc2nc(SCCCCn3c(C4CCNCC4)nc4cc(Cl)c(Cl)cc43)[nH]c2cc1Cl`, for which the MIC in assay [11] and in [12] was > 100 µM each time.
For the compound `O=C1c2cccc([N+](=O)[O-])c2C(=O)N1CCCCCn1c(C2CCNCC2)nc2cc(Cl)c(Cl)cc21`, the minimum inhibitory concentration (MIC) in assay [11] and in assay [12] was > 100 µM in each case.
Regarding `Clc1cc2nc(C3CCNCC3)n(CCCCCN3Cc4ccccc4C3)c2cc1Cl`, the minimum inhibitory concentration (MIC) in assay [14] turned out to be 50 µM (≈ 22.9 µg/mL); in assay [23] it was 100 µM (≈ 45.7 µg/mL).
On to `CSc1ccc(NC(=O)NNC(=O)Cn2c(C3CCNCC3)nc3cc(Cl)c(Cl)cc32)cc1`, for which the minimum inhibitory concentration (MIC) was 25 µM (≈ 12.7 µg/mL) in assay [24] and 50 µM (≈ 25.4 µg/mL) in [14].
Turning to `O=C1c2ccccc2C(=O)N1CCCCn1c(C2CCNCC2)nc2cc(Cl)c(Cl)cc21`, the minimal inhibitory concentration (MIC) in assay [11] and in [12] was > 100 µM each time.
`O=C(Cn1c(C2CCNCC2)nc2cc(Cl)c(Cl)cc21)N/N=C/c1c[nH]cn1`: the results for the MIC in [12] and in assay [23] were > 100 µM and 100 µM (≈ 42 µg/mL), respectively.
As for `COc1cc(/C=N/NC(=O)Cn2c(C3CCNCC3)nc3cc(Cl)c(Cl)cc32)cc([N+](=O)[O-])c1O`, the figures for the minimum inhibitory concentration (MIC) in assay [13] and in assay [12] were 50 µM (≈ 26.1 µg/mL) and > 100 µM, respectively.
In the same order, the values of `COc1cccc(/C=N/NC(=O)Cn2c(C3CCNCC3)nc3cc(Cl)c(Cl)cc32)c1` are 50 µM (≈ 23 µg/mL) and > 100 µM.
With `O=C1c2cc(Cl)c(Cl)cc2C(=O)N1CCCCCn1c(C2CCNCC2)nc2cc(Cl)c(Cl)cc21`, the minimal inhibitory concentration (MIC) in assay [24] was 25 µM (≈ 13.9 µg/mL); in [27], 100 µM (≈ 55.4 µg/mL).

For the origin of these results see ChEMBL document CHEMBL1147597, “Synthesis and biological evaluations of novel benzimidazoles as potential antibacterial agents” (Bioorg Med Chem Lett, 2004).
